Data taken from US5320825A, “Serotonin reuptake inhibitors for S.P.E.C.T. imaging” (Trustees of the University of Pennsylvania, priority 1991, dated 1994).
Where a name gives a salt, the structure may show the parent alone. Read-outs that look alike come from different tables or passages of the source.

Assays:
[1] = target: serotonin reuptake system (5-HT); details: read-out: Inhibition of monoamine uptake, 5-HT (Ki), cited from earlier work
[2] = target: norepinephrine (NE) reuptake system; details: rat synaptosomes; read-out: Inhibition of monoamine uptake, NE (Ki); cited from earlier work
[3] = target: dopamine (DA) reuptake system; details: read-out: Inhibition of monoamine uptake, DA (Ki), cited from earlier work
[4] = Biodistribution of compound 7 in rats after an iv injection; type: in vivo; details: rat
Method: The biodistribution of [R]-(-)-N-methyl-3-phenyl-3-(4-^123 I-2-methylphenoxy)propylamine hydrochloride (compound 7) in rats, after intravenous injection, was analyzed. Results are presented in Table 4 and indicate that moderate brain uptake (0.64-0.84% dose/organ) is found consistently throughout the two hour period.

[5] = target: norepinephrine reuptake sites (Rattus norvegicus, UniProt Q63380); assay: in vitro competitive binding assay, norepinephrine uptake sites, [3H]-Nisoxetine; details: rat brain tissue preparation
Text: (§1) The affinity of the compounds prepared in Examples 1-4 to serotonin and norepinephrine uptake sites was studied using in vitro competitive binding assays.

[6] = target: T1, serotonin reuptake sites (Rattus norvegicus, UniProt P31652); assay: in vitro competitive binding assay, serotonin uptake sites, [3H]-Paroxetine
T1 construct: in rat brain tissue preparation; from tissue
Text: as §1

[7] = system: rat brain sections; details: ex vivo autoradiography, 2 hr. post i.v. injection, paroxetine 10 mg/Kg, i.p.
[8] = for Biodistribution, Blood / Biodistribution, Brain / Biodistribution, Heart / Biodistribution, Kidney / Biodistribution, Liver / Biodistribution, Lung / Biodistribution, Muscle / Biodistribution, Skin / Biodistribution, Spleen / Biodistribution, Thyroid: rat, iv
[9] = system: prefrontal cortex membrane of rat brain; details: in vitro
[10] = n = 3, 2nd time column (time not given)
[11] = n = 3, 4th time column (time not given)

T1 sequence (P31652 whole entry): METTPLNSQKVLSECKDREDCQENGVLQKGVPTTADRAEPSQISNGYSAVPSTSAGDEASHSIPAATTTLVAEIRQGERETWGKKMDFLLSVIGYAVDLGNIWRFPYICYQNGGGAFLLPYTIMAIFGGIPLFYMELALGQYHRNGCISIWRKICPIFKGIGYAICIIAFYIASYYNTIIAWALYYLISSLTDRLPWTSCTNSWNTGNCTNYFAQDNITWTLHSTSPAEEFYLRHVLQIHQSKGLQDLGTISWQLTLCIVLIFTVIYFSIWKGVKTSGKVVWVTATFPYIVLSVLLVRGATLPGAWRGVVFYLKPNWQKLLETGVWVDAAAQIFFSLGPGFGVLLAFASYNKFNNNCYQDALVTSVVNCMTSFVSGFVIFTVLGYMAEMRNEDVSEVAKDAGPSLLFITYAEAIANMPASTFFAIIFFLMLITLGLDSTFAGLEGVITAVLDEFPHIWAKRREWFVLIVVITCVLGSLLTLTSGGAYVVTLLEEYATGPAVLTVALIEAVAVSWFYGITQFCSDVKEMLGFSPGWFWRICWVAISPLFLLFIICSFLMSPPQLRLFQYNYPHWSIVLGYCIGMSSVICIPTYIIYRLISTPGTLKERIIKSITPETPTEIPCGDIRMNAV
Sequence of norepinephrine reuptake sites (Q63380 1-617): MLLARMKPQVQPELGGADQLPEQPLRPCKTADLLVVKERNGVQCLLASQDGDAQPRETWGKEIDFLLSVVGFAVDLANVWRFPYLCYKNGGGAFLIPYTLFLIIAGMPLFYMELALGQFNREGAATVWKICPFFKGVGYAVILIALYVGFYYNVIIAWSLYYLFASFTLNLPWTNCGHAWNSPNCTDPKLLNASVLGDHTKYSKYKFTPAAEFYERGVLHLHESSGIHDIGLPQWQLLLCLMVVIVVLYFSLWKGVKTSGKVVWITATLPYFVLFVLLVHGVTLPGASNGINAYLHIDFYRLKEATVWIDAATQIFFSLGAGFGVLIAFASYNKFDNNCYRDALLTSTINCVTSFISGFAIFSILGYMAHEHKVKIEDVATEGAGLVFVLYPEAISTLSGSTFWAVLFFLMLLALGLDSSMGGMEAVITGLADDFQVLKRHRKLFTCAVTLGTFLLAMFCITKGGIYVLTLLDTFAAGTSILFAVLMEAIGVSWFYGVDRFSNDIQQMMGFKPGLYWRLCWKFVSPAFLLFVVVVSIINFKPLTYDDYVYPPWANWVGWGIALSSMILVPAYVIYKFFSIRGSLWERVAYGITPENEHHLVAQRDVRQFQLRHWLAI

Compound: CNCCC(Oc1ccccc1OC)c1ccccc1 (stereo not shown) [Nisoxetine]
- Ki ([1]; rat synaptosomes): 3.8 nM
- Ki [2]: 670 nM
- Ki ([3]; rat synaptosomes): 365 nM

Compound: CNCC[C@@H](Oc1ccc(I)cc1C)c1ccccc1.Cl [Compound 7, [R]-(-)-N-Methyl-3-phenyl-3-(4-iodo-2-methylphenoxy)propylamine hydrochloride]
- Biodistribution, Blood [4, 10]: 2.19 ± 0.32 % dose/organ
- Biodistribution, Brain [4, 10]: 0.80 ± 0.04 % dose/organ
- Biodistribution, Heart [4, 10]: 0.55 ± 0.04 % dose/organ
- Biodistribution, Kidney [4, 10]: 2.70 ± 0.48 % dose/organ
- Biodistribution, Lung [4, 10]: 9.36 ± 1.52 % dose/organ
- Biodistribution, Skin [4, 10]: 6.75 ± 1.35 % dose/organ
- Biodistribution, Spleen [4, 10]: 1.09 ± 0.32 % dose/organ
- Biodistribution, Thyroid [4, 10]: 0.07 ± 0.02 % dose/organ
- Biodistribution, Blood [4, 11]: 2.39 ± 0.33 % dose/organ
- Biodistribution, Brain [4, 11]: 0.68 ± 0.01 % dose/organ
- Biodistribution, Kidney [4, 11]: 1.12 ± 0.44 % dose/organ
- Biodistribution, Lung [4, 11]: 6.81 ± 0.76 % dose/organ
- Biodistribution, Skin [4, 11]: 6.92 ± 0.83 % dose/organ
- Biodistribution, Spleen [4, 11]: 0.79 ± 0.05 % dose/organ
- brain uptake ([4]; throughout the two hour period): 0.64-0.84 % dose/organ
- IC50 [5]: 20 nM
- Ki [6]: 5 nM

Compound: CNCCC(Oc1ccc(C(F)(F)F)cc1)c1ccccc1 (stereo not shown) [Fluoxetine]
- Ki [3]: 1590 nM

Compound: CN[C@@H]1CC[C@@H](c2ccccc2)c2ccccc21 [Tametraline]
- Ki ([1]; rat synaptosomes): 50 nM
- Ki [2]: 20 nM
- Ki ([3]; rat synaptosomes): 60 nM

Compound: CN[C@@H]1C[C@@H](c2ccc(Cl)c(Cl)c2)c2ccccc21 (relative stereo) [Indatraline trans, Indatraline]
- Ki [1]: 0.58 nM
- Ki [2]: 90 nM
- Ki [3]: 2000 nM

Compound: Fc1ccc([C@@H]2CCNC[C@H]2COc2ccc3c(c2)OCO3)cc1 [Paroxetine]
- Ki [2]: 350 nM

Compound: CNCC[C@H](Oc1cccc(I)c1)c1ccccc1 [Compound 11, [S]-(+)-N-Methyl-3-phenyl-3-(3-iodophenoxy)propylamine]
- IC50 [5]: 7000 nM
- Ki ([6]; rat brain tissue preparation, [3H]-Paroxetine, read-out: Serotonin Uptake [3H]-Paroxetine Ki): 8.2 nM

Compound: CN[C@@H]1C[C@H](c2ccc(Cl)c(Cl)c2)c2ccccc21 (relative stereo) [Indatraline cis, Indatraline]
- Ki [1]: 0.03 nM
- Ki [2]: 34 nM
- Ki [3]: 860 nM

Compound: CNCC[C@@H](Oc1cccc(I)c1)c1ccccc1 [Compound 4, [R]-(-)-N-Methyl-3-phenyl-3-(3-iodophenoxy)propylamine]
- IC50 [5]: 500 nM
- Ki [6]: 0.8 nM

Compound: CNCCC(Oc1ccc(C(F)(F)F)cc1)c1ccc([125I])cc1 (racemic) [Compound 15, iodo-fluoxetine]
- regional distribution pattern in rat brain sections, effect of paroxetine pretreatment [7]: not altered by pretreatment of paroxetine
- initial brain uptake ([8]; 2 min.): 0.68 % dose/organ
- brain retention ([8]; 8 hr.): 0.63 % dose/organ
- Biodistribution, Blood ([8]; 2 min.): 3.03 ± 0.40 % dose/organ
- Biodistribution, Brain ([8]; 2 min.): 0.61 ± 0.12 % dose/organ
- Biodistribution, Heart ([8]; 2 min.): 2.27 ± 0.31 % dose/organ
- Biodistribution, Kidney ([8]; 2 min.): 4.16 ± 0.36 % dose/organ
- Biodistribution, Liver ([8]; 2 min.): 15.92 ± 2.41 % dose/organ
- Biodistribution, Lung ([8]; 2 min.): 11.09 ± 2.32 % dose/organ
- Biodistribution, Muscle ([8]; 2 min.): 12.71 ± 5.3 % dose/organ
- Biodistribution, Skin ([8]; 2 min.): 4.90 ± 0.50 % dose/organ
- Biodistribution, Spleen ([8]; 2 min.): 0.61 ± 0.06 % dose/organ
- Biodistribution, Thyroid ([8]; 2 min.): 0.10 ± 0.04 % dose/organ
- Biodistribution, Blood ([8]; 15 min.): 1.71 ± 0.31 % dose/organ
- Biodistribution, Brain ([8]; 15 min.): 0.68 ± 0.02 % dose/organ
- Biodistribution, Heart ([8]; 15 min.): 1.14 ± 0.04 % dose/organ
- Biodistribution, Kidney ([8]; 15 min.): 4.05 ± 0.44 % dose/organ
- Biodistribution, Liver ([8]; 15 min.): 16.27 ± 2.35 % dose/organ
- Biodistribution, Lung ([8]; 15 min.): 6.77 ± 0.25 % dose/organ
- Biodistribution, Muscle ([8]; 15 min.): 16.01 ± 4.55 % dose/organ
- Biodistribution, Skin ([8]; 15 min.): 5.84 ± 0.95 % dose/organ
- Biodistribution, Spleen ([8]; 15 min.): 0.93 ± 0.15 % dose/organ
- Biodistribution, Thyroid ([8]; 15 min.): 0.07 ± 0.03 % dose/organ
- Biodistribution, Blood ([8]; 60 min.): 3.16 ± 0.36 % dose/organ
- Biodistribution, Brain ([8]; 60 min.): 0.78 ± 0.01 % dose/organ
- Biodistribution, Heart ([8]; 60 min.): 0.43 ± 0.05 % dose/organ
- Biodistribution, Kidney ([8]; 60 min.): 2.32 ± 0.38 % dose/organ
- Biodistribution, Liver ([8]; 60 min.): 17.64 ± 1.88 % dose/organ
- Biodistribution, Lung ([8]; 60 min.): 7.32 ± 0.45 % dose/organ
- Biodistribution, Muscle ([8]; 60 min.): 22.63 ± 4.48 % dose/organ
- Biodistribution, Skin ([8]; 60 min.): 10.76 ± 2.85 % dose/organ
- Biodistribution, Spleen ([8]; 60 min.): 1.20 ± 0.13 % dose/organ
- Biodistribution, Thyroid ([8]; 60 min.): 0.08 ± 0.01 % dose/organ
- Biodistribution, Blood ([8]; 120 min.): 3.62 ± 0.24 % dose/organ
- Biodistribution, Brain ([8]; 120 min.): 0.84 ± 0.073 % dose/organ
- Biodistribution, Heart ([8]; 120 min.): 0.48 ± 0.02 % dose/organ
- Biodistribution, Kidney ([8]; 120 min.): 1.82 ± 0.21 % dose/organ
- Biodistribution, Liver ([8]; 120 min.): 11.55 ± 0.78 % dose/organ
- Biodistribution, Lung ([8]; 120 min.): 7.21 ± 0.36 % dose/organ
- Biodistribution, Muscle ([8]; 120 min.): 24.22 ± 0.68 % dose/organ
- Biodistribution, Skin ([8]; 120 min.): 10.08 ± 0.78 % dose/organ
- Biodistribution, Spleen ([8]; 120 min.): 1.09 ± 0.07 % dose/organ
- Biodistribution, Thyroid ([8]; 120 min.): 0.10 ± 0.02 % dose/organ
- Biodistribution, Blood ([8]; 240 min.): 4.99 ± 0.70 % dose/organ
- Biodistribution, Brain ([8]; 240 min.): 0.70 ± 0.031 % dose/organ
- Biodistribution, Heart ([8]; 240 min.): 0.28 ± 0.01 % dose/organ
- Biodistribution, Kidney ([8]; 240 min.): 1.18 ± 0.17 % dose/organ
- Biodistribution, Liver ([8]; 240 min.): 11.52 ± 0.91 % dose/organ
- Biodistribution, Lung ([8]; 240 min.): 7.57 ± 2.36 % dose/organ
- Biodistribution, Muscle ([8]; 240 min.): 20.38 ± 2.67 % dose/organ
- Biodistribution, Skin ([8]; 240 min.): 8.27 ± 0.75 % dose/organ
- Biodistribution, Spleen ([8]; 240 min.): 0.71 ± 0.11 % dose/organ
- Biodistribution, Thyroid ([8]; 240 min.): 0.14 ± 0.001 % dose/organ
- Biodistribution, Blood ([8]; 480 min.): 7.61 ± 1.11 % dose/organ
- Biodistribution, Brain ([8]; 480 min.): 0.61 ± 0.07 % dose/organ
- Biodistribution, Heart ([8]; 480 min.): 0.32 ± 0.03 % dose/organ
- Biodistribution, Kidney ([8]; 480 min.): 1.11 ± 0.06 % dose/organ
- Biodistribution, Liver ([8]; 480 min.): 16.47 ± 2.03 % dose/organ
- Biodistribution, Lung ([8]; 480 min.): 5.00 ± 0.46 % dose/organ
- Biodistribution, Muscle ([8]; 480 min.): 19.90 ± 2.61 % dose/organ
- Biodistribution, Skin ([8]; 480 min.): 10.78 ± 0.07 % dose/organ
- Biodistribution, Spleen ([8]; 480 min.): 0.52 ± 0.048 % dose/organ
- Biodistribution, Thyroid ([8]; 480 min.): 0.22 ± 0.06 % dose/organ
- initial heart uptake ([8]; rats, 2 min. post injection): 2.3%
- heart uptake ([8]; rats, 8 hr. post injection): 0.3%
- non-specific binding [9]: strong non-specific binding

Compound: CNCC[C@H](Oc1ccc(I)cc1C)c1ccccc1 [Compound 14, {S}-(+)-N-Methyl-3-phenyl-3-(4-iodo-2-methylphenoxy)propylamine hydrochloride]
- IC50 [5]: 9 nM
- Ki [6]: 0.8 nM
